The results in this text go back to ChEMBL document CHEMBL3763046 (Bioorg Med Chem, 2016).

Series [1] relates to Mus musculus. Put plainly: AUC (0 to infinity) in mouse at 20 mg/kg, iv or 35 mg/kg, po administered as single dose by LC/MS/MS analysis. It counts as ADME, organism-based. As to conditions: in vivo.
Series [2] is described as follows: Apparent volume of distribution during terminal phase in mouse at 35 mg/kg, po administered as single dose measured at 0.25 to 24 hrs by LC/MS/MS analysis. To be noted: in vivo, read-out: Vz/F. The class given is ADME, organism-based.
Series [3] relates to Mus musculus. Put plainly: Half life in mouse at 20 mg/kg, iv or 35 mg/kg, po administered as single dose by LC/MS/MS analysis. As to conditions: in vivo. It counts as ADME, organism-based.
Series [4] relates to Mus musculus. Put plainly: Cmax in mouse at 35 mg/kg, po administered as single dose measured at 0.25 to 24 hrs by LC/MS/MS analysis. Also noted: dose 35 mg/kg, route oral. As to conditions: in vivo. It counts as ADME, organism-based.
Series [5] relates to Mus musculus. Put plainly: Tmax in mouse at 35 mg/kg, po administered as single dose by LC/MS/MS analysis. As to conditions: in vivo. The class given is ADME, organism-based.
The nature of series [6]: Antitumor activity against human MKN45 cells xenografted in Balb/c mouse assessed as tumor growth inhibition at 50 mg/kg, po bid for 24 days relative to control. Also noted: scale not given: the % may be the effect or the level left. It counts as functional, MKN-45. In general terms: Xenograft models place foreign cells or tissue in a host animal.
The subject of series [7] is Mus musculus. Put plainly: Toxicity in Balb/c mouse xenografted with human MKN45 cells assessed as change in body weight at 50 mg/kg, po bid for 24 days. It counts as organism-based, MKN-45. As to conditions: in vivo, 576 h.
For series [8], the system named is Mus musculus. Put plainly: Toxicity in Balb/c mouse xenografted with human HT-29 cells assessed as change in body weight at 50 mg/kg, po bid for 27 days. As to conditions: in vivo, 648 h. The class given is organism-based.
The subject of series [9] is HT-29. Put plainly: Antitumor activity against human HT-29 cells xenografted in Balb/c mouse assessed as tumor growth inhibition at 50 mg/kg, po bid for 27 days relative to control. The arrangement: scale not given: the % may be the effect or the level left. It counts as functional.
For series [10], the system named is A549. Put plainly: Cytotoxicity against human A549 cells after 72 hrs by MTT assay. To be noted: A549, 72 h. The class given is functional, cell-based. On the technique in general: Formazan colour is commonly taken as a measure of viable cells.
The subject of series [11] is HT-29. Put plainly: Cytotoxicity against human HT-29 cells after 72 hrs by MTT assay. To be noted: HT-29, 72 h.
Series [12] can be described thus: Potency index, ratio of IC50 for foretinib to IC50 for test compound for cytotoxicity against human MKN45 cells. It counts as functional, MKN-45.
Series [13] has as its system A549. Put plainly: Potency index, ratio of IC50 for foretinib to IC50 for test compound for cytotoxicity against human A549 cells. The class given is functional.
Series [14] relates to HT-29. Put plainly: Potency index, ratio of IC50 for foretinib to IC50 for test compound for cytotoxicity against human HT-29 cells. It counts as functional.
A short description of series [15]: Cytotoxicity against human MKN45 cells after 72 hrs by MTT assay. As to conditions: MKN-45, 72 h.
A further series has as its system MDA-MB-231. Put plainly: Cytotoxicity against human MDA-MB-231 cells after 72 hrs by MTT assay. The class given is functional, cell-based. To be noted: MDA-MB-231, 72 h.
A further series relates to PBL. Put plainly: Cytotoxicity against human PBL cells after 72 hrs by MTT assay. It counts as cell-based.
Series [16] concerns the target Epidermal growth factor receptor (Homo sapiens, UniProt P00533). Put plainly: Inhibition of EGFR (unknown origin) using poly(glu,Tyr)4:1 as substrate incubated for 30 mins by homogeneous time-resolved fluorescence assay.
Series [17] has as its target Hepatocyte growth factor receptor (Homo sapiens, UniProt P08581). Put plainly: Inhibition of c-Met kinase (unknown origin) using poly(glu,Tyr)4:1 as substrate incubated for 30 mins by homogeneous time-resolved fluorescence assay.
Series [18] addresses Vascular endothelial growth factor receptor 2 (Homo sapiens, UniProt P35968). Put plainly: Inhibition of KDR (unknown origin) using poly(glu,Tyr)4:1 as substrate incubated for 30 mins by homogeneous time-resolved fluorescence assay.
Series [19] concerns the target Platelet-derived growth factor receptor alpha (Homo sapiens, UniProt P16234). Put plainly: Inhibition of PDGFR-alpha (unknown origin) using poly(glu,Tyr)4:1 as substrate incubated for 30 mins by homogeneous time-resolved fluorescence assay.
Series [20] has as its target Mast/stem cell growth factor receptor Kit (Homo sapiens, UniProt P10721). Put plainly: Inhibition of c-kit (unknown origin) using poly(glu,Tyr)4:1 as substrate incubated for 30 mins by homogeneous time-resolved fluorescence assay.
Series [21] addresses T1, Receptor-type tyrosine-protein kinase FLT3 (Homo sapiens, UniProt P36888).
T1 sequence (P36888 whole entry): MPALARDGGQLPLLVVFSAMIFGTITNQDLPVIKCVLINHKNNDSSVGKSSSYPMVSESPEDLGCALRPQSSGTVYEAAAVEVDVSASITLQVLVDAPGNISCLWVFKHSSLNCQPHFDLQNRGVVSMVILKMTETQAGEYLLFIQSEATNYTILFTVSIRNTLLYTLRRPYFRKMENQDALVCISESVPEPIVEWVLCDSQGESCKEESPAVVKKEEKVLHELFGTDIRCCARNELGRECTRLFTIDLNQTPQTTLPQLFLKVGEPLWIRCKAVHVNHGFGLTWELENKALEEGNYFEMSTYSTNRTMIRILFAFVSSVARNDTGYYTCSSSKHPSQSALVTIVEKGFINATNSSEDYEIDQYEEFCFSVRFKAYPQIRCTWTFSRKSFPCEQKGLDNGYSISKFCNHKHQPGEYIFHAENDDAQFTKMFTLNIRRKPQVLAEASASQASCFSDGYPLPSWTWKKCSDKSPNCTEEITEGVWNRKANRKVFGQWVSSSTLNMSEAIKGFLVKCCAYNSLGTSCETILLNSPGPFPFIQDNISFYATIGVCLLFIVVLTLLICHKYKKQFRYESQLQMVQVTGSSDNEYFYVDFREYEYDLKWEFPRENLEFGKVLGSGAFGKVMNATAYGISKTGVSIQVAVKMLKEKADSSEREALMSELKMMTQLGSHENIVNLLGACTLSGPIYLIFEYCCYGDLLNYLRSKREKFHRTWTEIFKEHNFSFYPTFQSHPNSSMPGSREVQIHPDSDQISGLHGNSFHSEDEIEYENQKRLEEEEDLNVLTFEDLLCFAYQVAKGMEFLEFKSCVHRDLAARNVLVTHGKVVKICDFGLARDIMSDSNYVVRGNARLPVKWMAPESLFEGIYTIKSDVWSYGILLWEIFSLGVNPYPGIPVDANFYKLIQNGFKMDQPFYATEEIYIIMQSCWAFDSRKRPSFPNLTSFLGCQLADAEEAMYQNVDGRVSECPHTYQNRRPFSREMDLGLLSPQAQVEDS
Put plainly: Inhibition of Flt-3 (unknown origin) using poly(glu,Tyr)4:1 as substrate incubated for 30 mins by homogeneous time-resolved fluorescence assay.

The target in series [22] is Macrophage-stimulating protein receptor (Homo sapiens, UniProt Q04912). Put plainly: Inhibition of Ron (unknown origin) using poly(glu,Tyr)4:1 as substrate incubated for 30 mins by homogeneous time-resolved fluorescence assay.
Sequence of Macrophage-stimulating protein receptor (Q04912 25-304 limits assumed): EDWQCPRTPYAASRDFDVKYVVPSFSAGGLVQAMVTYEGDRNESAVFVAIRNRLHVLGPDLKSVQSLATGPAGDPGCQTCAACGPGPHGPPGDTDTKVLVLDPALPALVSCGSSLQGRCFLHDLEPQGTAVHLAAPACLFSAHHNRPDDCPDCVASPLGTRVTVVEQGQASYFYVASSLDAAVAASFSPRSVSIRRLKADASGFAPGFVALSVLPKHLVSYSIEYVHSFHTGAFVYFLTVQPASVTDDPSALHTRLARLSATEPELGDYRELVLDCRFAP
Sequence of Macrophage-stimulating protein receptor (Q04912 310-1400 limits assumed): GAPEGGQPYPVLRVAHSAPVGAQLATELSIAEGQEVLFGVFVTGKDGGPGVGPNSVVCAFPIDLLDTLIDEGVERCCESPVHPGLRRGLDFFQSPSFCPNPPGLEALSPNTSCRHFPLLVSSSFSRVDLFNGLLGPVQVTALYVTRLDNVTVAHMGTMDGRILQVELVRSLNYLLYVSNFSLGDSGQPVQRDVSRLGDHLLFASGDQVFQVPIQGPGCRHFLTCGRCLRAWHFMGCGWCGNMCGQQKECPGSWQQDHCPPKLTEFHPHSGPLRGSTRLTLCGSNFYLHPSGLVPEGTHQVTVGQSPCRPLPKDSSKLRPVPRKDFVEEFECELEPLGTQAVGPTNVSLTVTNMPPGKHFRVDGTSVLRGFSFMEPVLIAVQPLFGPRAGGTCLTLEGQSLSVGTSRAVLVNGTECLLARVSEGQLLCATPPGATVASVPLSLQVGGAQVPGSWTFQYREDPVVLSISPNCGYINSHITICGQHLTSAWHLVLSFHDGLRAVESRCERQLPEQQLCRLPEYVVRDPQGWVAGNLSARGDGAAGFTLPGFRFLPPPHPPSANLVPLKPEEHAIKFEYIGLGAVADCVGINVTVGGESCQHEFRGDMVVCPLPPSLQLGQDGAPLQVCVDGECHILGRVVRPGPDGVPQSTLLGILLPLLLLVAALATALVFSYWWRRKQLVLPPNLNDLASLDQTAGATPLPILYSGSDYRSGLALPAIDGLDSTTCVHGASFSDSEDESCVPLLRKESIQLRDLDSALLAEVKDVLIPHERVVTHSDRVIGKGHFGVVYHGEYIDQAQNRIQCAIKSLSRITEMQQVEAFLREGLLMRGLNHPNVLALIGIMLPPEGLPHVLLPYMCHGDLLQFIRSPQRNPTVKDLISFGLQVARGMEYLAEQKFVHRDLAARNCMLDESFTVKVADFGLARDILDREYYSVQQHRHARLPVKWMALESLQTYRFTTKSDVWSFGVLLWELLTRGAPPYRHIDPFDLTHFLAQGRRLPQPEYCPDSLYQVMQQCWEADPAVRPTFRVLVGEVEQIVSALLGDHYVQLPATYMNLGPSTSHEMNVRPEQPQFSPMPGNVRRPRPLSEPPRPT
Series [23] in a line: Mean residence time (0 to infinity) in mouse at 20 mg/kg, iv or 35 mg/kg, po administered as single dose by LC/MS/MS analysis. It counts as ADME, organism-based. To be noted: in vivo.
Series [24] relates to Mus musculus. Put plainly: Apparent oral clearance in mouse at 35 mg/kg, po administered as single dose measured at 0.25 to 24 hrs by LC/MS/MS analysis. The class given is ADME, organism-based. To be noted: in vivo.

Sequence of Vascular endothelial growth factor receptor 2 (P35968 whole entry): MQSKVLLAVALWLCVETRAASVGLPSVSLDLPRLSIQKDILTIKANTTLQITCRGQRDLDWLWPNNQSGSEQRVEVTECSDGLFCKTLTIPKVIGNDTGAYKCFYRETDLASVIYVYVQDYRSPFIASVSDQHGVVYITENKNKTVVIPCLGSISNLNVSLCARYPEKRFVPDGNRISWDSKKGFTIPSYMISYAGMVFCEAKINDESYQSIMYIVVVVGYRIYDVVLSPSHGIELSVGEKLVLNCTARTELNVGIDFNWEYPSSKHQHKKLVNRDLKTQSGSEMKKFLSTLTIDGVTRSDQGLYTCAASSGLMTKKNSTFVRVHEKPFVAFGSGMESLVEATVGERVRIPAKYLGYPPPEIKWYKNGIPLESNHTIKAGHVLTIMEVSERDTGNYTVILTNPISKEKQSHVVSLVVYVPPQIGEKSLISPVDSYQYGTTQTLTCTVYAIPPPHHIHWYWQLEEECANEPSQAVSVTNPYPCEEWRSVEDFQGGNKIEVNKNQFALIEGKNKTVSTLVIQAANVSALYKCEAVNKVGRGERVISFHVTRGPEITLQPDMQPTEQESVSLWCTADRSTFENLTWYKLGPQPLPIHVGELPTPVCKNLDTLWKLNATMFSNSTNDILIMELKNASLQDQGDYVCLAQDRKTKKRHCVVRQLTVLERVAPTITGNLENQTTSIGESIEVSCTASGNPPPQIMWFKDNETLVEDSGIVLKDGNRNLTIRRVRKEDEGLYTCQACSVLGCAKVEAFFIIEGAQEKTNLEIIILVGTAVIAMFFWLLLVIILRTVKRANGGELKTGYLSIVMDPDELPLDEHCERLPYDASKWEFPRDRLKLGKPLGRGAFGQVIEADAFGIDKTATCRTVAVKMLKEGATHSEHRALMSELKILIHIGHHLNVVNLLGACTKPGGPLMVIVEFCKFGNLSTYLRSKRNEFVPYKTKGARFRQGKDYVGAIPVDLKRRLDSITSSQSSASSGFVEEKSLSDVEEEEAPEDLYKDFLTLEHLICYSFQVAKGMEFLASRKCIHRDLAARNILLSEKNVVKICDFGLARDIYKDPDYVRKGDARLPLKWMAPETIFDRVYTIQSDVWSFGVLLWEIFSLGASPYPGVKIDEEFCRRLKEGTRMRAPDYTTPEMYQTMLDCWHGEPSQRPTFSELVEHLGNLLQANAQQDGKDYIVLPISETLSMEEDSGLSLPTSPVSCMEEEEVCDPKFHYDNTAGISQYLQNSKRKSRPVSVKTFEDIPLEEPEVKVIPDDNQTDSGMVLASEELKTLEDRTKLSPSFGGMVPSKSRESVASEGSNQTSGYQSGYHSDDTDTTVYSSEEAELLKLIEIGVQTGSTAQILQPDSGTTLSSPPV
Sequence of Epidermal growth factor receptor (P00533 whole entry): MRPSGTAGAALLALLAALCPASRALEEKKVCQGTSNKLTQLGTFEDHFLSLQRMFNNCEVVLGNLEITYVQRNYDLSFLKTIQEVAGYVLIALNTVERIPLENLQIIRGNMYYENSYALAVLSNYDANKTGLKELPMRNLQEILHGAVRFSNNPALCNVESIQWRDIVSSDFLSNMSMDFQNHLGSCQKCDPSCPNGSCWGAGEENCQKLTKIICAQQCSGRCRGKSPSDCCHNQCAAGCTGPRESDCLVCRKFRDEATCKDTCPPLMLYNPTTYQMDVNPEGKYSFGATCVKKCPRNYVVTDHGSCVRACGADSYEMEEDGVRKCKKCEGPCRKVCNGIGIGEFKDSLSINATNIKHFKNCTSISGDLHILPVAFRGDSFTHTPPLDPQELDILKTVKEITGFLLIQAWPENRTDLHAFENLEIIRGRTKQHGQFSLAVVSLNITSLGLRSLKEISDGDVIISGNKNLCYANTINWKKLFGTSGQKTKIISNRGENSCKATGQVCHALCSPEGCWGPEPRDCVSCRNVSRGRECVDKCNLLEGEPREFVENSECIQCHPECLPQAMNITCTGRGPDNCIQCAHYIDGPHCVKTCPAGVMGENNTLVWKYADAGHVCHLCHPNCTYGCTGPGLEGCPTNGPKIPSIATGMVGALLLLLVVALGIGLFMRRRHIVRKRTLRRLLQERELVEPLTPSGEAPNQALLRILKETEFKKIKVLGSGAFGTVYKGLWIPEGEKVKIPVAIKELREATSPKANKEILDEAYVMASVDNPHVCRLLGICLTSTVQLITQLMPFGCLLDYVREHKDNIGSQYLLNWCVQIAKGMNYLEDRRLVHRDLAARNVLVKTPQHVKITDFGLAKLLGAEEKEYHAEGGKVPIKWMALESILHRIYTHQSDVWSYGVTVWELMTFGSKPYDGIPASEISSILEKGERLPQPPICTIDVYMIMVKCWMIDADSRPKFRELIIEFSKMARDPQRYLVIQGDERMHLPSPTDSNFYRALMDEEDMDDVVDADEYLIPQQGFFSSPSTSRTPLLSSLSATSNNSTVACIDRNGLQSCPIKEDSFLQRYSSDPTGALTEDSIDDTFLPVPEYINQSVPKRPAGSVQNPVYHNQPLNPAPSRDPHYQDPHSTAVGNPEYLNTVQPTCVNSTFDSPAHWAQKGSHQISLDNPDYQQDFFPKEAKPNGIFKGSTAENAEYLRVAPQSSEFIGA
Sequence of Platelet-derived growth factor receptor alpha (P16234 whole entry): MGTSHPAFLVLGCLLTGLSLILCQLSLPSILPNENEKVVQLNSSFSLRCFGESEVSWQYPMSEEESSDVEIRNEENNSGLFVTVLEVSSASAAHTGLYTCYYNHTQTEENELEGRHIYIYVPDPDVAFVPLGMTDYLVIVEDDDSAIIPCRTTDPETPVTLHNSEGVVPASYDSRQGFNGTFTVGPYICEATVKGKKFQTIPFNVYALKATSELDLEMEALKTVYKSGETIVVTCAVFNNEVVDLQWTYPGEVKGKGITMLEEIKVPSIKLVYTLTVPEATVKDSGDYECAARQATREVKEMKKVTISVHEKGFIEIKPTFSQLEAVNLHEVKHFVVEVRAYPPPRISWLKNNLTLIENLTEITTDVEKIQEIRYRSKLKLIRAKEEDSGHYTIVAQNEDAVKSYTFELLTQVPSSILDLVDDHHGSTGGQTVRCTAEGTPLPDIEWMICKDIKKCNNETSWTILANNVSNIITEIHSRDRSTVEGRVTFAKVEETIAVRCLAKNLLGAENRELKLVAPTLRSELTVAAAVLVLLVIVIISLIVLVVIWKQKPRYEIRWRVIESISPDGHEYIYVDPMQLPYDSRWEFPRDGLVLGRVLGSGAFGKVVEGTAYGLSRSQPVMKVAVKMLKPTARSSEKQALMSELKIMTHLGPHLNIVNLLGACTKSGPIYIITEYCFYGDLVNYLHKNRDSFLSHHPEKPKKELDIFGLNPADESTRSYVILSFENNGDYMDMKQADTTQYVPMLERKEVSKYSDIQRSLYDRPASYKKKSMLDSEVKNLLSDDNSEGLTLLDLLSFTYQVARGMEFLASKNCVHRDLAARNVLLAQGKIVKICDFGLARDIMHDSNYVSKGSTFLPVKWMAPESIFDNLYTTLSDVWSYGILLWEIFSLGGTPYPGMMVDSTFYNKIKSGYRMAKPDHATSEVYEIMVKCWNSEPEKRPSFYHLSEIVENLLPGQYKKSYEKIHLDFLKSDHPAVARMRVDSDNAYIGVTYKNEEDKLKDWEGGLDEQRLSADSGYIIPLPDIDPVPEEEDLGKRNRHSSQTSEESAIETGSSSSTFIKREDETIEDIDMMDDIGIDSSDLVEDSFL

Usually AUC stands for the area under the concentration-time curve, a measure of exposure. For orientation: Cmax means the maximum level reached in the sampled fluid or tissue. By Tmax is commonly meant the time at which the peak concentration occurs. Usually IC50 stands for the concentration that inhibits the measured activity by half. Usually MRT inf stands for the average time that molecules of a dose stay in the body. Turning to `C=CCc1cccc(/C=N/NC(=O)Nc2ccc(Oc3ccnc4cc(OCCCN5CCCCC5)c(OC)cc34)c(F)c2)c1O`, the AUC with Mus musculus [1] was 16500 ng·h/mL. In addition, in series [2], the Vd/F turned out to be 43.9 L/kg. Moreover, the t1/2 with Mus musculus [3] is 13.75 h. In the series with Mus musculus [4], this molecule returned a Cmax of 680 ng/mL. The Tmax in the series on Mus musculus [5] was determined as 6 h. The Activity was 70.18% in series [6], “Non-toxic” with Mus musculus [7], “Non-toxic” in the series with Mus musculus [8] and 65.86% in the series with HT-29 [9]. For the same molecule, the IC50 with A549 [10] was 11 nM; with HT-29 [11], 27 nM; in [15] it was 39 nM; in the series with MDA-MB-231, 440 nM; in the series with PBL it was 107000 nM; in [16] it was over 100000 nM. Moreover, the IC50 is 1.54 nM in series [17]; 210 nM in [18]; 212 nM in series [19]; 162 nM in [20]; 367 nM in [21]; 14.5 nM in series [22]. In addition, the “Ratio IC50” value in series [12] amounted to 1.7; in the series with A549 [13], 15.4; with HT-29 [14], 9.6. Further, the MRT inf in [23] turned out to be 23.4 h.

As a reminder, the CL/F is clearance divided by bioavailability, as obtained after extravascular dosing. Regarding `COc1cc2c(Oc3ccc(NC(=O)N/N=C/c4ccc(F)cc4Cl)cc3F)ccnc2cc1OCCCN1CCCCC1`, the AUC with Mus musculus [1] came out at 910 ng·h/mL. Also, the CL/F in the series with Mus musculus [24] amounted to 1334 mL/min/kg. In series [2], the Vd/F was determined as 371 L/kg. In the series on Mus musculus [3], this molecule came in with a t1/2 of 3.3 h. For the same molecule, the Cmax in the series with Mus musculus [4] stood at 78 ng/mL. In addition, in the series with Mus musculus [5], the Tmax was found to be 0.75 h. The IC50 worked out at 130 nM with A549 [10], 260 nM in the series with HT-29 [11], 270 nM in series [15] and 790 nM with MDA-MB-231. For the same molecule, the MRT inf in series [23] worked out at 13.2 h.
